ChEMBL document CHEMBL4739716, “Gpr139 receptor modulators” (2020)
pEC50: −log10 of the molar value.

Key:
[1] = target: T1, Probable G-protein coupled receptor 139 (Homo sapiens) (UniProt Q6DWJ6); assay: Agonist activity at human GPR139 expressed in CHO-K1 cells assessed as increase in calcium flux by calcium 5 dye based FLIPR assay relative to JNJ63533054; assay type: functional, cell-based
T1 sequence (whole entry): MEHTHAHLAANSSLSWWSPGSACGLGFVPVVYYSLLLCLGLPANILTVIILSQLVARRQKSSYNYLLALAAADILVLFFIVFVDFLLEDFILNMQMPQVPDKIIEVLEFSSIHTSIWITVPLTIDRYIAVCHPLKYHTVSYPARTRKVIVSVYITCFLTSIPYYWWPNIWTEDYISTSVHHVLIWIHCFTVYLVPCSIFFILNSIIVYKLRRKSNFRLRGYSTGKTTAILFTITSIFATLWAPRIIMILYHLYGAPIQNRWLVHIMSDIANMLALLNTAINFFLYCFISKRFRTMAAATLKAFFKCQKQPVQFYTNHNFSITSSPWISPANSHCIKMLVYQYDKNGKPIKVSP

[2] = target: T2, Probable G-protein coupled receptor 139 (Rattus norvegicus, UniProt P0C0W8); assay: Agonist activity at rat GPR139 expressed in CHO-K1 cells assessed as increase in calcium flux by calcium 5 dye based FLIPR assay; assay type: cell-based
T2 sequence (P0C0W8 whole entry): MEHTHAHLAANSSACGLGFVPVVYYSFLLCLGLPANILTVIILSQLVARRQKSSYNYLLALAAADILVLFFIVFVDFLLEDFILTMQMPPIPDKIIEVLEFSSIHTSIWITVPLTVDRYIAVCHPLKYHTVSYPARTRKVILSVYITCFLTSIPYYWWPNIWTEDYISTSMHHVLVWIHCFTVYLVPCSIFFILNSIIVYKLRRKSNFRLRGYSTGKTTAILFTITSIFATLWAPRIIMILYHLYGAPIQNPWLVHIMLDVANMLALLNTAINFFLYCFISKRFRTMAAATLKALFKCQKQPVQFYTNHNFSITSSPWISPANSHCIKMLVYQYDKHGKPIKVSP

[3] = target: T1, Probable G-protein coupled receptor 139 (Homo sapiens); assay: Agonist activity at human GPR139 expressed in CHO-K1 cells assessed as induction of beta-arrestin 2 recruitment incubated for 90 mins by PathHunter assay relative to JNJ63533054; assay type: cell-based
[4] = target: T3, Probable G-protein coupled receptor 139 (Homo sapiens, UniProt Q6DWJ6); assay: Agonist activity at human GPR139 expressed in CHO-K1 cells assessed as induction of beta-arrestin 2 recruitment incubated for 90 mins by PathHunter assay; assay type: cell-based
T3 sequence (Q6DWJ6 whole entry): T1 sequence (whole entry)

[5] = target: T3, Probable G-protein coupled receptor 139; assay: Agonist activity at human GPR139 expressed in CHO-K1 cells assessed as increase in calcium flux by calcium 5 dye based FLIPR assay; assay type: functional, cell-based
[6] = target: T4, Probable G-protein coupled receptor 139 (Rattus norvegicus) (UniProt P0C0W8); assay: Agonist activity at rat GPR139 expressed in CHO-K1 cells assessed as increase in calcium flux by calcium 5 dye based FLIPR assay relative to JNJ63533054; assay type: cell-based
T4 sequence (whole entry): T2 sequence (P0C0W8 whole entry)

Row | SMILES | Emax ([1]; filed as agonist) [%] | pEC50 [2] | Emax [3] [%] | pEC50 [4] | pEC50 ([5]; cho-k1) | Emax [6] [%] | pEC50 ([2]; cho-k1) | Emax ([6]; filed as agonist) [%] | Emax ([3]; filed as agonist) [%] | pEC50 ([4]; cho-k1) | pEC50 [5] | Emax [1] [%]
1 | Cc1cnc2nn(CC(=O)N[C@@H](C)c3ccc(OC(F)(F)F)cc3)c(=O)n2c1 | 50 | ≤ 7.00 | 25 | ≤ 7.00 | 9.00 | 25 | – | – | – | – | – | –
2 | Cc1ccc([C@H](C)NC(=O)Cn2nc3cccnn3c2=O)cc1 | > 80 | – | 25 | ≤ 7.00 | 8.00 | – | 9.00 | 50 | – | – | – | –
3 | CC(C(=O)N[C@@H](C)c1ccc(Cl)c(F)c1)n1nc2ncccn2c1=O (stereo in doubt; form 1) [listing 1 of 2 here] | – | – | – | ≤ 7.00 | 9.00 | – | 8.00 | – | – | – | – | –
4 | C[C@H](NC(=O)Cn1nc2c(OC3CN(C)C3)nccn2c1=O)c1ccc(Cl)c(F)c1 | 50 | ≤ 7.00 | 25 | ≤ 7.00 | – | – | – | > 80 | – | – | ≤ 7.00 | –
5 | COc1ccn2c(=O)n(CC(=O)N[C@@H](C)c3ccc(OC(F)(F)F)cc3)nc2n1 | 50 | – | 25 | > 9.00 | – | 25 | 9.00 | – | – | – | > 9.00 | –
6 | C[C@H](NC(=O)Cn1nc2ccccn2c1=O)c1ccc(Cl)c(F)c1 | > 80 | > 9.00 | – | – | 9.00 | – | – | > 80 | > 80 | 9.00 | – | –
7 | C[C@H](NC(=O)Cn1nc2cccnn2c1=O)c1ccc(Cl)c(Cl)c1 | > 80 | – | – | – | 9.00 | – | 9.00 | 50 | 50 | 8.00 | – | –
8 | C[C@H](NC(=O)Cn1nc2cc(N3CCN(C)CC3)ccn2c1=O)c1ccc(OC(F)(F)F)cc1 | 50 | ≤ 7.00 | 25 | ≤ 7.00 | – | – | – | 50 | – | – | ≤ 7.00 | –
9 | C[C@H](NC(=O)Cn1nc2ccc(Cl)nn2c1=O)c1ccc(OC(F)(F)F)cc1 | 50 | – | 25 | – | 9.00 | 25 | 9.00 | – | – | 8.00 | – | –
10 | CC(C(=O)N[C@@H](C)c1ccc(Cl)c(F)c1)n1nc2ncccn2c1=O (stereo in doubt; form 2) [listing 1 of 2 here] | – | ≤ 7.00 | – | – | – | – | – | – | – | 9.00 | – | –
11 | C[C@H](NC(=O)Cn1nc2cccnn2c1=O)c1ccc(C2CC2)c(F)c1 | > 80 | – | – | ≤ 7.00 | 9.00 | – | 9.00 | 50 | 50 | – | – | –
12 | CC(C(=O)N[C@@H](C)c1ccc(Cl)c(F)c1)n1nc2cccnn2c1=O (stereo in doubt; I-6-2) [listing 1 of 2 here] | – | – | – | – | 9.00 | – | 9.00 | – | – | 8.00 | – | –
13 | CC(C(=O)N[C@@H](C)c1ccc(Cl)c(F)c1)n1nc2ncccn2c1=O (stereo in doubt; form 1) [listing 2 of 2 here] | > 80 | – | – | – | – | – | – | 50 | 50 | – | – | –
14 | O=C(Cn1nc2cccnn2c1=O)N[C@H](c1ccc(Cl)c(F)c1)C1CC1 | 50 | – | < 25 | ≤ 7.00 | 9.00 | – | – | – | – | – | – | –
15 | CC(C(=O)N[C@@H](C)c1ccc(Cl)c(F)c1)n1nc2cccnn2c1=O (stereo in doubt; I-6-1) [listing 1 of 2 here] | > 80 | – | 25 | – | – | – | – | 50 | – | – | – | –
16 | C[C@H](NC(=O)Cn1nc2c(N3CCN(C)CC3)nccn2c1=O)c1ccc(Cl)c(F)c1 | 50 | – | – | – | 9.00 | – | 9.00 | > 80 | – | – | – | –
17 | C[C@H](NC(=O)Cn1nc2ccccn2c1=O)c1ccc(Cl)cc1 | > 80 | > 9.00 | – | – | – | – | – | 50 | – | – | > 9.00 | –
18 | CC(C(=O)N[C@@H](C)c1ccc(Cl)c(F)c1)n1nc2ncccn2c1=O (stereo in doubt; form 2) [listing 2 of 2 here] | > 80 | – | – | – | – | 25 | – | – | 50 | – | – | –
19 | C[C@H](NC(=O)Cn1nc2cccc(N3CC(O)C3)n2c1=O)c1ccc(OC(F)(F)F)cc1 | 50 | – | – | – | – | 25 | 9.00 | – | – | – | > 9.00 | –
20 | CC(C(=O)N[C@@H](C)c1ccc(Cl)c(F)c1)n1nc2ccccn2c1=O (stereo in doubt; form 2) [listing 2 of 2 here] | – | – | – | – | 9.00 | – | 9.00 | – | – | 8.00 | – | –
21 | C[C@H](NC(=O)Cn1nc2c(C(F)(F)F)ccnn2c1=O)c1ccc(Cl)c(F)c1 | > 80 | – | – | – | – | – | – | – | 50 | 9.00 | > 9.00 | –

Continued, values first:

Row | Emax ([1]; filed as agonist) [%] | pEC50 [2] | Emax [3] [%] | pEC50 [4] | pEC50 ([5]; cho-k1) | Emax [6] [%] | pEC50 ([2]; cho-k1) | Emax ([6]; filed as agonist) [%] | Emax ([3]; filed as agonist) [%] | pEC50 ([4]; cho-k1) | pEC50 [5] | Emax [1] [%] | SMILES
22 | > 80 | > 9.00 | – | – | – | – | – | > 80 | > 80 | 9.00 | > 9.00 | – | CNc1cccn2c(=O)n(CC(=O)N[C@@H](C)c3ccc(C)cc3)nc12
23 | > 80 | > 9.00 | – | > 9.00 | – | – | – | 50 | 50 | – | > 9.00 | – | C[C@H](NC(=O)Cn1nc2cc(Cl)ccn2c1=O)c1ccc(OC(F)(F)F)cc1
24 | > 80 | ≤ 7.00 | – | ≤ 7.00 | 9.00 | 25 | – | – | 50 | – | – | – | Cc1cc(Cl)ccc1[C@H](C)NC(=O)Cn1nc2ncccn2c1=O
25 | > 80 | – | – | – | – | – | 9.00 | 50 | > 80 | 9.00 | > 9.00 | – | C[C@H](NC(=O)Cn1nc2ccc(C#N)cn2c1=O)c1ccc(Cl)c(F)c1
26 | > 80 | > 9.00 | – | – | – | – | – | 50 | > 80 | 9.00 | > 9.00 | – | Cc1ccc2nn(CC(=O)N[C@@H](C)c3ccc(OC(F)(F)F)cc3)c(=O)n2c1
27 | > 80 | – | – | – | – | – | – | 50 | > 80 | – | – | – | CC(C(=O)N[C@@H](C)c1ccc(Cl)c(F)c1)n1nc2ccccn2c1=O (stereo in doubt; form 1) [listing 1 of 2 here]
28 | > 80 | – | – | – | – | 25 | – | – | 50 | – | – | – | CC(C(=O)N[C@@H](C)c1ccc(Cl)c(F)c1)n1nc2ccccn2c1=O (stereo in doubt; form 2) [listing 1 of 2 here]
29 | > 80 | – | – | – | – | 25 | – | – | 50 | – | – | – | Cc1ccc([C@H](C)NC(=O)C(C)n2nc3ccccn3c2=O)cc1 (stereo in doubt; form 3)
30 | > 80 | – | – | – | – | – | – | > 80 | > 80 | – | – | – | Cc1ccc([C@H](C)NC(=O)C(C)n2nc3ccccn3c2=O)cc1 (stereo in doubt; form 2) [listing 1 of 2 here]
31 | – | > 9.00 | – | ≤ 7.00 | – | – | – | – | – | – | – | – | Cc1ccc([C@H](C)NC(=O)C(C)n2nc3ccccn3c2=O)cc1 (stereo in doubt; form 2) [listing 2 of 2 here]
32 | > 80 | – | – | – | – | – | – | > 80 | 50 | – | – | – | CC(C(=O)N[C@@H](C)c1ccc(Cl)c(F)c1)n1nc2cccnn2c1=O (stereo in doubt; I-6-2) [listing 2 of 2 here]
33 | > 80 | – | – | ≤ 7.00 | – | – | – | – | > 80 | – | > 9.00 | – | C[C@H](NC(=O)Cn1nc2c(N3CCOCC3)ccnn2c1=O)c1ccc(Cl)c(F)c1
34 | – | > 9.00 | – | > 9.00 | – | – | – | – | – | – | > 9.00 | – | CC(C(=O)N[C@@H](C)c1ccc(Cl)c(F)c1)n1nc2ccccn2c1=O (stereo in doubt; form 1) [listing 2 of 2 here]
35 | > 80 | – | – | – | – | – | – | – | > 80 | 9.00 | > 9.00 | – | COc1ccnn2c(=O)n(CC(=O)N[C@@H](C)c3ccc(Cl)c(F)c3)nc12
36 | > 80 | – | – | – | – | – | – | – | > 80 | 9.00 | > 9.00 | – | CNc1ccnn2c(=O)n(CC(=O)N[C@@H](C)c3ccc(Cl)c(F)c3)nc12
37 | – | – | < 25 | ≤ 7.00 | 8.00 | – | – | – | – | – | – | 25 | C[C@H](NC(=O)Cn1nc2ccccn2c1=O)c1ccc(-c2ccccc2)cc1
38 | > 80 | – | – | – | – | – | – | – | 50 | 9.00 | > 9.00 | – | C[C@H](NC(=O)Cn1nc2ccc(C3CC3)nn2c1=O)c1ccc(Cl)c(F)c1
39 | > 80 | – | – | – | 9.00 | – | 9.00 | 50 | – | – | – | – | COc1ccn2c(=O)n(CC(=O)N[C@@H](C)c3ccc(Cl)cc3)nc2n1
40 | > 80 | – | – | – | 9.00 | – | 8.00 | 50 | – | – | – | – | C[C@H](NC(=O)Cn1nc2ncccn2c1=O)c1ccc(Cl)c(Cl)c1
41 | > 80 | > 9.00 | – | – | – | – | – | > 80 | – | – | > 9.00 | – | CNc1nccn2c(=O)n(CC(=O)N[C@@H](C)c3ccc(Cl)c(F)c3)nc12
42 | – | – | – | ≤ 7.00 | 8.00 | – | 8.00 | – | – | – | – | – | CC(C(=O)N[C@@H](C)c1ccc(Cl)c(F)c1)n1nc2cccnn2c1=O (stereo in doubt; I-6-1) [listing 2 of 2 here]
43 | > 80 | – | – | – | 9.00 | – | 9.00 | 50 | – | – | – | – | Cc1ccc([C@H](C)NC(=O)Cn2nc3cnc(C)cn3c2=O)cc1
